Patent US20220324862A1, “PYRIDOPYRIMIDINONE COMPOUNDS” (Acerand Therapeutics (USA) Limited, priority 2021, published 2022)

Target: T1, protein-protein interaction between SOS1 and KRAS-G12D (Homo sapiens, UniProt Q07889)
T1 construct: The purified GST-SOS1 catalytic domain (residues 564-1049) was first diluted in assay buffer; made in house; host or cells: E. coli BL21 (DE3) for SOS1; E. coli BL21 carrying a BirA plasmid for KRAS-G12D
T1 sequence (Q07889 564-1049): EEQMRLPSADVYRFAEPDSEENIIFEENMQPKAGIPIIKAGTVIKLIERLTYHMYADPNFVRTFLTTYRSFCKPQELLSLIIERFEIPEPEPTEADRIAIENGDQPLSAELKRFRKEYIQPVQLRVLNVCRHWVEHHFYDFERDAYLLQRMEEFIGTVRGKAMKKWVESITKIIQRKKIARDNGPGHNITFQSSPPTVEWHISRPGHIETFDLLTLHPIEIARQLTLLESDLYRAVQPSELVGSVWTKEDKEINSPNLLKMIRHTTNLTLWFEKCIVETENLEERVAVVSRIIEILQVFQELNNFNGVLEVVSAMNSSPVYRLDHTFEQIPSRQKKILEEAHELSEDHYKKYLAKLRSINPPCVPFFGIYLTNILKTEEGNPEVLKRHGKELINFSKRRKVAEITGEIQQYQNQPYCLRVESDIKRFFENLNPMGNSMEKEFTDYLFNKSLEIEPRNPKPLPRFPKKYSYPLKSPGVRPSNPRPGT
Test: HTRF Based Protein-Protein Interaction Assay
Type: binding
Conditions: HTRF; GST-SOS1 2.5 nM, KRAS-G12D 100 nM, GDP 10 uM; read-out: IC50 value, inhibition of SOS1/KRAS-G12D protein-protein interaction
In short: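 GST-SOS1 (residues 564-1049, 2.5 nM) preincubated 15 min at 25° C with compound (0.5 nM-10 μM, 3-fold), then biotinylated avi-KRAS-G12D (1-169, 100 nM) with 10 uM GDP added for 60 min. HTRF read after 5 h with anti-GST-Tb cryptate/streptavidin-XL665; buffer HEPES pH 7.5, Brij-35, TCEP, BSA.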

Compared with `C#C[C@@H](Nc1ncnc2c1cc(C1(O)CCN(C(C)=O)C1)c(=O)n2C)c1cccc(C(F)F)c1F` (stereo partly drawn) [Compound 43, 6-(1-acetyl-3-hydroxypyrrolidin-3-yl)-4-{[(1R)-1-[3-(difluoromethyl)-2-fluorophenyl]prop-2-yn-1-yl]amino}-8-methyl-7H,8H-pyrido[2,3-d]pyrimidin-7-one], `C#C[C@@H](Nc1ncnc2c1cc(C1(O)CCN(C(C)=O)CC1)c(=O)n2C)c1cccc(C(F)F)c1F` [Compound 46, 6-(1-acetyl-4-hydroxypiperidin-4-yl)-4-{[(1R)-1-[3-(difluoromethyl)-2-fluorophenyl]prop-2-yn-1-yl]amino}-8-methyl-7H,8H-pyrido[2,3-d]pyrimidin-7-one] is lower in IC50: 100 to 200 nM for the first, less than 100 nM for the second.

`C#C[C@@H](Nc1nc(C)nc2c1cc(C1(O)CCN(C(C)=O)CC1)c(=O)n2C)c1cccc(C(F)(F)F)c1C` [Compound 54, 6-(1-acetyl-4-hydroxypiperidin-4-yl)-2,8-dimethyl-4-{[(1R)-1-[2-methyl-3-(trifluoromethyl)phenyl]prop-2-yn-1-yl]amino}-7H,8H-pyrido[2,3-d]pyrimidin-7-one] and `C#C[C@@H](Nc1nc(C)nc2c1cc(C1(F)CCN(C(C)=O)CC1)c(=O)n2C)c1cccc(C(F)(F)F)c1C` [Compound 56, 6-(1-acetyl-4-fluoropiperidin-4-yl)-2,8-dimethyl-4-{[(1R)-1-[2-methyl-3-(trifluoromethyl)phenyl]prop-2-yn-1-yl]amino}-7H,8H-pyrido[2,3-d]pyrimidin-7-one] cannot be ordered by IC50: less than 100 nM for the first, less than 100 nM for the second.

`C#C[C@@H](Nc1nc(C)nc2c1cc(C1(OC)CCN(C(C)=O)CC1)c(=O)n2C)c1cccc(C(F)(F)F)c1C` [Compound 55, 6-(1-acetyl-4-methoxypiperidin-4-yl)-2,8-dimethyl-4-{[(1R)-1-[2-methyl-3-(trifluoromethyl)phenyl]prop-2-yn-1-yl]amino}-7H,8H-pyrido[2,3-d]pyrimidin-7-one] and `C#C[C@@H](Nc1ncnc2c1cc(C1(NC(C)=O)CCN(C(C)=O)CC1)c(=O)n2C)c1cccc(C(F)(F)F)c1C` [Compound 57, (R)-N-(1-acetyl-4-(8-methy-4-((1-(2-methyl-3-(trifluoromethyl)phenyl)prop-2-yn-1-yl)amino)-7-oxo-7,8-dihydropyrido[2,3-d]pyrimidin-6-yl)piperidin-4-yl)acetamide] cannot be ordered by IC50: less than 100 nM for the first, less than 100 nM for the second.

`C#C[C@@H](Nc1nc(C)nc2cc(=O)n(C3(C(F)F)CC3)cc12)c1cccc(C(F)(F)F)c1C` [Compound 9, (R)-6-(1-(difluoromethyl)cyclopropyl)-2-methyl-4-((1-(2-methyl-3-(trifluoromethyl)phenyl)prop-2-yn-1-yl)amino)pyrido[4,3-d]pyrimidin-7(6H)-one] and `C#C[C@@H](Nc1nc(C)nc2cc(=O)n(C3CCOCC3)cc12)c1cccc(C(F)(F)F)c1C` [Compound 4, (R)-2-methyl-4-((1-(2-methyl-3-(trifluoromethyl)phenyl)prop-2-yn-1-yl)amino)-6-(tetrahydro-2H-pyran-4-yl)pyrido[4,3-d]pyrimidin-7(6H)-one] cannot be ordered by IC50: less than 100 nM for the first, less than 100 nM for the second.

Compared with `C#C[C@@H](Nc1ncnc2c1cc(C1(OC)CCN(C(C)=O)C1)c(=O)n2C)c1cccc(C(F)F)c1F` (stereo partly drawn) [Compound 49, 6-(1-acetyl-3-methoxypyrrolidin-3-yl)-4-{[(1R)-1-[3-(difluoromethyl)-2-fluorophenyl]prop-2-yn-1-yl]amino}-8-methyl-7H,8H-pyrido[2,3-d]pyrimidin-7-one], `C#C[C@@H](Nc1ncnc2c1cc(C1(OC)CCN(C(C)=O)CC1)c(=O)n2C)c1cccc(C(F)F)c1F` [Compound 48, (R)-6-(1-acetyl-4-methoxypiperidin-4-yl)-4-((1-(3-(difluoromethyl)-2-fluorophenyl)prop-2-yn-1-yl)amino)-8-methylpyrido[2,3-d]pyrimidin-7(8H)-one] is higher in IC50: less than 100 nM for the first, 100 to 200 nM for the second.

`C#C[C@@H](Nc1ncnc2c1cc(C1(NC(C)=O)CCOCC1)c(=O)n2C)c1cccc(C(F)(F)F)c1C` [Compound 58, (R)-N-(4-(8-methy-4-((1-(2-methyl-3-(trifluoromethyl)phenyl)prop-2-yn-1-yl}amino)-7-oxo-7,8-dihydropyrido[2,3-d]pyrimidin-6-yl)tetrahydro-2H-pyran-4-yl)acetamide] was tested, and the IC50 was 100 to 200 nM.
